The conditions of data set [1]: cited from earlier work.
For data set [2] the following is noted: cited from earlier work. The source holds these as a separate data set.
The nature of data set [3]: Saturation shake-flask equilibrium solubility (48 h, 37 °C, UV-Vis). The conditions noted are these: for solubility thermodynamic at 48 h: thermodynamic from solid, read-out: Css mean. The format is physicochemical. As to the method:
In this study dissolution test has been performed in the presence of amino acids within various media, including phosphate buffer solution (pH = 7.4), hydrochloric acid buffer (pH = 1.2), citrate buffer (pH = 6 and pH = 4.2), and distilled water (pH = 6.5). Briefly, for each buffer, a suitable amount of components was transferred to a 250 mL volumetric flask and then diluted with distilled water to the volume line. Finally, the pH of the solution was examined and set using a pH meter (Germany, Metrohm SWISS mode).
The saturation shake-flask method has been used for solubility studies. In brief, buffer solutions containing different concentrations of each amino acid were prepared. An excess amount of each drug was weighed in capped vials, then buffers alone and mixed with amino acids were added to the vials and the pH change was set again. After that, capped vials were shaken for about 48 hours on a shaker incubator (Korea, HYSC) at speed of 150 RPM and 37^ᵒC to reach equilibrium and result a saturated solution. After 48 hours the upper phase was separated and centrifuged. Filtered samples were diluted with buffer before reading their UV-Vis absorbance. Then the amount of solubility was calculated using a calibration curve considering the dilution coefficient. Each of the experiments was repeated three times.

The mark [4] stands for this setting: Citrate buffer, pH 6 before incubation, 48 h, 37 °C.
Setting [5] is: Phosphate buffer, pH 7.4 before incubation, 48 h, 37 °C.
The mark [6] stands for this setting: Water, pH 6.5 before incubation, 48 h, 37 °C.
The mark [7] stands for this setting: aqueous buffer, Citrate buffer, pH 6 before incubation, 48 h, 37 °C.
The mark [8] stands for this setting: aqueous buffer, Phosphate buffer, pH 7.4 before incubation, 48 h, 37 °C.
The mark [9] stands for this setting: distilled water, pH 6.5, increasing GlucN.
The mark [10] stands for this setting: hydrochloric acid buffer, pH 1.2 before incubation, 48 h, 37 °C.
[11] abbreviates: Citrate buffer, pH 4.2 before incubation, 48 h, 37 °C.

In brackets after ≈: the same amount, converted by molar mass. Like-named read-outs stand apart in the source and are kept apart here.

For `CC(C)Cc1ccc(C(C)C(=O)O)cc1` (stereo not drawn) [IBU, Ibuprofen], the “unionized fraction in the stomach” value in data set [1] is on record as 99.9%. Moreover, in data set [2] (free acid), the intrinsic water solubility was approximately 60 µg/mL. Also, the “Measured Css Sample 1” value in data set [3] (setting [4]) was determined as 5330 µg/mL; in data set [3] (setting [5]), 10510 µg/mL; in data set [3] (setting [6]), 3210 µg/mL; in data set [3] (setting [10]) it was 790 µg/mL. Also, the “Measured Css Sample 2” value is 5050 µg/mL in data set [3] (setting [4]), 10330 µg/mL in data set [3] (setting [5]), 3110 µg/mL in data set [3] (setting [6]) and 820 µg/mL in data set [3] (setting [10]). Besides, the “Measured Css Sample 3” value in data set [3] (setting [4]) is 5240 µg/mL; in data set [3] (setting [5]) it was 10510 µg/mL; in data set [3] (setting [6]) it was 3060 µg/mL; in data set [3] (setting [10]), 790 µg/mL. Also, the solubility thermodynamic at 48 h in data set [3] (setting [7]) was 5200 µg/mL (≈ 25.2 mM); in data set [3] (setting [8]), 10400 µg/mL (≈ 50.7 mM); in data set [3] (distilled water, Water, pH 6.5 before incubation, 48 h, 37 °C), 3120 µg/mL (≈ 15.1 mM); in data set [3] (simulated gastric fluid, hydrochloric acid buffer, pH 1.2 before incubation, 48 h, 37 °C) it was 800 µg/mL (≈ 3.88 mM). The “change of drug solubility in the presence of GlucN” value in data set [3] (citrate buffer, pH 6) is listed as “solubility increased”; in data set [3] (setting [9]) it was “follows an upward pattern”. Also, the Css mean in data set [3] (setting [10]) turned out to be 800 µg/mL.

On to `N[C@H]1C(O)O[C@H](CO)[C@@H](O)[C@@H]1O` (stereo partly drawn) [GlucN, Glucosamine], for which the water solubility in data set [2] is 320000 µg/mL (≈ 1790 mM).

For `CN1C(C(=O)Nc2ccccn2)=C(O)c2ccccc2S1(=O)=O` [PXM, Piroxicam], the “Measured Css Sample 1” value in data set [3] (setting [11]) is 280 µg/mL; in data set [3] (setting [4]), 140 µg/mL; in data set [3] (setting [5]) it was 1250 µg/mL. For the same compound, the “Measured Css Sample 2” value stood at 230 µg/mL in data set [3] (setting [11]), 130 µg/mL in data set [3] (setting [4]) and 1320 µg/mL in data set [3] (setting [5]). Further, the “Measured Css Sample 3” value in data set [3] (setting [11]) worked out at 250 µg/mL; in data set [3] (setting [4]), 150 µg/mL; in data set [3] (setting [5]) it was 1320 µg/mL. For the same compound, the solubility thermodynamic at 48 h worked out at 250 µg/mL (≈ 0.754 mM) in data set [3] (aqueous buffer, Citrate buffer, pH 4.2 before incubation, 48 h, 37 °C); 140 µg/mL (≈ 0.423 mM) in data set [3] (setting [7]); 1290 µg/mL (≈ 3.89 mM) in data set [3] (setting [8]). Moreover, the “change of drug solubility in the presence of GlucN” value in data set [3] (citrate buffer, pH 4.2) was “enhanced”; in data set [3] (citrate buffer, pH 6), “improved the solubility”; in data set [3] (setting [9]) it was “does not change significantly”. Further, the “change of drug solubility in the presence of LYS” value in data set [3] (citrate buffer, pH 4.2, Figure 3B) is reported as “did not follow a specific trend”. Also, in data set [3] (phosphate buffer, concentration above molar ratio 1:1 PXM/ARG, Figure 3A), the “change of drug solubility in the presence of ARG” value was “solubility goes down”.

These data come from article PMC10460801 (Advanced Pharmaceutical Bulletin, 2022).
